{"source": "patent US5047242A", "about": "“Azadirachtin derivative insecticides” (Native Plant Institute (\"NPI\"), priority 1987, dated 1991)", "key": {"Heliothis virescens [1]": {"tested_on": "Heliothis virescens", "assay": "Oral injection of fifth-instar larvae, pupal and adult development (non-irradiated compounds)", "assay_type": "in vivo", "conditions": "for Adults (%) / Adults Deformed (%) / Pupae (%) / Unsuccessful Larvae-Pupae (%) / Unsuccessful Pupae-Adult (%): % of larvae; for inhibition of pupation (in words): 1.0 μg per os", "method": "(§1) Individual larvae were injected per os on the first day of the fifth instar with 1.0 μg of either irradiated or non-irradiated compounds dissolved in 1.0 μl of 75% aqueous ethanol.\nTable 2: Successful and unsuccessful pupal and adult development of\nfifthinstar Heliothis Virescens larvae injected orally with 1.0 microgram\nof either azadirachtin, 3deacetylazadirachtin, 22,23dihydroazadirachtin,\nor 2',3',22,23tetrahydroazadirachtin."}, "Heliothis virescens [2]": {"tested_on": "Heliothis virescens", "assay": "Relative activity of UV-irradiated compounds in inhibiting pupal development of fifth-instar larvae", "assay_type": "in vivo", "conditions": "for Relative activity, inhibition of pupal development: relative to non-irradiated counterpart", "method": "(§2) Azadirachtin, 3-deacetylazadirachtin, 22,23-dihydroazadirachtin, and 2',3',22,23-tetrahydroazadirachtin (1.0 mg/ml absolute ethanol) were placed individually in capped quartz NMR tubes (5×180 mm) and were irradiated with two UV germicidal lights (GE, G30T8, 200-280 nm, 30W) 1.8 m from the source at room temperature for up to 400 h. The controls were identical samples protected from exposure to UV radiation by wrapping with aluminum foil. At selected time intervals, aliquots from both the controls (non-irradiated) and irradiated samples were removed for high-performance liquid chromatography (HPLC) analysis and bioassay (vide infra).\nas §1\nTable 3: Relative activity of azadirachtin, 3deacetylaza-dirachtin,\n22,23dihydroazadirachtin, and 2',3',22,23tetrahydroazadirachtin, all of\nwhich had been exposed for 15, 30, 90, 200, and 400 hours to UV radiation\ninhibiting the pupal development of fifthinstar Heliothis virescens\n(§3) larvae. Relative activity is defined as the percentage of larvae injected"}, "Heliothis virescens [3]": {"tested_on": "Heliothis virescens", "assay": "Artificial diet feeding bioassay, mortality and growth inhibition in first-instar larvae", "assay_type": "in vivo, Heliothis virescens (tobacco budworm)", "conditions": "for EC50 (concentration causing 50% growth inhibition): Table 1, first-instar Heliothis virescens larvae, artificial diet, parentheses = 95% confidence limits", "source_text": "The results of the growth inhibitory and lethal activities of azadirachtin and these 8 derivatives when fed in an artificial diet to Heliothis virescens larvae are shown in Table 1. Similar to the results of Morgan, E. D., in \"Natural pesticides from the Neem tree (Azadirachta indica A. Juss), Schmutterer, H., et al., Eds., Proc. First International Neem Conference (Rottach-Egern, 1980), German Agency for Technical Corporation,Eschborn, Germany, 1982, pps. 43-52 (hereinafter \"Morgan\"), neither deacetylation nor hydrogenation of the carbon-carbon double bond of the dihydrofuran ring moiety of azadirachtin had any significant effect on activity of the compound against H. virescens.\nMortality and growth inhibition in first-instar Heliothis\nvirescens larvae fed azadirachtin and eight derivatives in an\nartificial diet (I. Kubo and J. A. Klocke, In: Plant Resistance to\nInsects (P. A. Helin, Ed.), ACS Symposium Series 208, American Chemical\nSociety, Washington, D.C. (1983), pp. 329-346.).^a\n^b LC50 values are the concentrations (ppm) causing 50%\n^c EC50 values are the concentrations (ppm) causing 50% growth\n^d Numbers in parentheses are the 95% confidence limits determined\nusing the methods of Litchfield and Wilcoxon, J. Pharmacol. Exp. Ther.\nAn artificial diet feeding bioassay with neonate larvae of tobacco budworm (Heliothis virescens) and fall armyworm (Spodoptera frugiperda) was used as previously described (Kubo and Klocke, 1983) to detect insecticidal activities in the plant extracts to monitor fractionation, and to determine the potency of the isolated constituents and derivatives. Potency was determined either as the effective concentration (EC50) of added material that is necessary to reduce larval growth to 50% of the control values or as the lethal concentration (LC50) of added material that is necessary to kill 50% of the treated larvae. EC50 and LC50 values were determined from log probit paper and analyzed statistically by the method of Litchfield and Wilcoxon, supra."}, "[4]": {"assay": "UV stability in ethanol by reversed phase HPLC", "assay_type": "physicochemical", "conditions": "for UV lability (in words): UV irradiation, HPLC", "method": "Stability of Azadirachtin derivatives was determined as follows:\nas §2\nAnalytical reversed phase HPLC was performed on a phenyl (5μm) column run isocratically with acetonitrile-water (3:7) (Yamasaki et al.) Peaks were detected at 214 nm. The irradiated samples were compared with their corresponding non-UV-irradiated controls by measuring the height of the peak eluting at the appropriate Rt for each irradiated compound relative to each one's non-irradiated control. Results are expressed as the percent of the initial sample concentration remaining relative to the control. Each time point was done in at least triplicate fashion."}, "Heliothis virescens [5]": {"tested_on": "Heliothis virescens", "assay": "Relative activity of UV-irradiated compounds in inhibiting adult development of fifth-instar larvae", "assay_type": "in vivo", "conditions": "for Relative activity, inhibition of adult development: relative to non-irradiated counterpart", "method": "as §2, §1\nTable 4: Relative activity of azadirachtin, 3deacetylaza-dirachtin,\n22,23dihydroazadirachtin, 2',3',22,23tetrahydroaza-dirachtin, all of whic\nhad been exposed for 15, 30, 90, 200, and 400 hours to UV radiation, in\ninhibiting the adult development of fifthinstar Heliothis virescens\nas §3\nrelative to the percentage injected with its nonirradiated counterpart"}, "[6]": {"conditions": "1.0 microgram injected orally, fifth-instar, non-irradiated"}}, "note": "Entries after “also recorded” stand apart in the source; their conditions may differ.", "data": [{"smiles": "CCC(C)C(=O)OC1CC(OC(C)=O)C2(C(=O)OC)COC3C2C12COC(O)(C(=O)OC)C2C(C)(C12OC1(C)C1CC2OC2OCCC21O)C3O", "note": "(stereo not shown) [2',3',22,23-tetrahydroazadirachtin]", "values": [{"measurement": "Number Adults", "setting": "Heliothis virescens [1]; [6]", "result": 0, "unit": "Number"}, {"measurement": "Number Adults Deformed", "setting": "Heliothis virescens [1]; [6]", "result": 0, "unit": "Number"}, {"measurement": "Unsuccessful Larvae-Pupae (number)", "setting": "Heliothis virescens [1]; [6]", "result": 6, "unit": "Number"}, {"measurement": "Unsuccessful Pupae-Adult (number)", "setting": "Heliothis virescens [1]; [6]", "result": 1, "unit": "Number"}, {"measurement": "Adults (%)", "setting": "Heliothis virescens [1]; 1.0 microgram injected orally", "result": 0, "unit": "%"}, {"measurement": "Adults Deformed (%)", "setting": "Heliothis virescens [1]; 1.0 microgram injected orally", "result": 0, "unit": "%"}, {"measurement": "Pupae (%)", "setting": "Heliothis virescens [1]; 1.0 microgram injected orally", "result": 7.4, "unit": "%"}, {"measurement": "Unsuccessful Larvae-Pupae (%)", "setting": "Heliothis virescens [1]; 1.0 microgram injected orally", "result": 4.4, "unit": "%"}, {"measurement": "Unsuccessful Pupae-Adult (%)", "setting": "Heliothis virescens [1]; 1.0 microgram injected orally", "result": 0.7, "unit": "%"}, {"measurement": "inhibition of pupation (in words)", "setting": "Heliothis virescens [1]; non-irradiated", "result": "equally effective"}, {"measurement": "Relative activity, inhibition of pupal development", "setting": "Heliothis virescens [2]; 15 h UV exposure", "result": 99.4, "unit": "%"}, {"measurement": "Relative activity, inhibition of pupal development", "setting": "Heliothis virescens [2]; 30 h UV exposure", "result": 103.7, "unit": "%"}, {"measurement": "Relative activity, inhibition of pupal development", "setting": "Heliothis virescens [2]; 90 h UV exposure", "result": 99.7, "unit": "%"}, {"measurement": "ability to inhibit pupation after UV (in words)", "setting": "Heliothis virescens [2]; 200 h UV", "result": "most active in inhibiting pupation"}, {"measurement": "Relative activity, inhibition of pupal development", "setting": "Heliothis virescens [2]; 200 h UV exposure", "result": 108.0, "unit": "%"}, {"measurement": "ability to inhibit pupation after UV (in words)", "setting": "Heliothis virescens [2]; 400 h UV", "result": "some loss in activity; also recorded: still more active than the other test compounds"}, {"measurement": "Relative activity, inhibition of pupal development", "setting": "Heliothis virescens [2]; 400 h UV exposure", "result": 69.1, "unit": "%"}, {"measurement": "insecticidal activity (in words)", "setting": "Heliothis virescens [3]; Heliothis virescens feeding", "result": "full activity; also recorded: fully active"}, {"measurement": "EC50 (concentration causing 50% growth inhibition)", "setting": "Heliothis virescens [3]", "result": "0.08 (0.05-0.13) ppm"}, {"measurement": "degradation following 200 h of exposure to UV radiation (in words)", "setting": "[4]", "result": "no degradation"}, {"measurement": "UV lability (in words)", "setting": "[4]", "result": "not UV-labile"}, {"measurement": "Relative activity, inhibition of adult development", "setting": "Heliothis virescens [5]; 15 h UV exposure", "result": 100.0, "unit": "%"}, {"measurement": "Relative activity, inhibition of adult development", "setting": "Heliothis virescens [5]; 30 h UV exposure", "result": 100.0, "unit": "%"}, {"measurement": "Relative activity, inhibition of adult development", "setting": "Heliothis virescens [5]; 90 h UV exposure", "result": 100.0, "unit": "%"}, {"measurement": "Relative activity, inhibition of adult development", "setting": "Heliothis virescens [5]; 200 h UV exposure", "result": 100.0, "unit": "%"}, {"measurement": "ability to inhibit larvae from reaching the adult stage after UV (in words)", "setting": "Heliothis virescens [5]; 400 h UV", "result": "fully active"}, {"measurement": "Relative activity, inhibition of adult development", "setting": "Heliothis virescens [5]; 400 h UV exposure", "result": 100.0, "unit": "%"}]}, {"smiles": "C/C=C(\\C)C(=O)OC1CC(O)C2(C(=O)OC)COC3C2C12COC(O)(C(=O)OC)C2C(C)(C12OC1(C)C1CC2OC2OC=CC21O)C3O", "note": "(stereo not shown) [3-deacetylazadirachtin]", "values": [{"measurement": "Number Adults", "setting": "Heliothis virescens [1]; [6]", "result": 10, "unit": "Number"}, {"measurement": "Number Adults Deformed", "setting": "Heliothis virescens [1]; [6]", "result": 10, "unit": "Number"}, {"measurement": "Number Pupae", "setting": "Heliothis virescens [1]; [6]", "result": 56, "unit": "Number"}, {"measurement": "Unsuccessful Larvae-Pupae (number)", "setting": "Heliothis virescens [1]; [6]", "result": 13, "unit": "Number"}, {"measurement": "Unsuccessful Pupae-Adult (number)", "setting": "Heliothis virescens [1]; [6]", "result": 4, "unit": "Number"}, {"measurement": "Adults (%)", "setting": "Heliothis virescens [1]; 1.0 microgram injected orally", "result": 5.9, "unit": "%"}, {"measurement": "Adults Deformed (%)", "setting": "Heliothis virescens [1]; 1.0 microgram injected orally", "result": 5.9, "unit": "%"}, {"measurement": "Pupae (%)", "setting": "Heliothis virescens [1]; 1.0 microgram injected orally", "result": 33.1, "unit": "%"}, {"measurement": "Unsuccessful Larvae-Pupae (%)", "setting": "Heliothis virescens [1]; 1.0 microgram injected orally", "result": 7.7, "unit": "%"}, {"measurement": "Unsuccessful Pupae-Adult (%)", "setting": "Heliothis virescens [1]; 1.0 microgram injected orally", "result": 2.4, "unit": "%"}, {"measurement": "inhibition of pupation (in words)", "setting": "Heliothis virescens [1]; non-irradiated", "result": "less effective"}, {"measurement": "Relative activity, inhibition of pupal development", "setting": "Heliothis virescens [2]; 15 h UV exposure", "result": 115.2, "unit": "%"}, {"measurement": "Relative activity, inhibition of pupal development", "setting": "Heliothis virescens [2]; 30 h UV exposure", "result": 135.0, "unit": "%"}, {"measurement": "activity retained after 90 h of exposure to UV radiation (in words)", "setting": "Heliothis virescens [2]; 90 h UV", "result": "retained full activity"}, {"measurement": "Relative activity, inhibition of pupal development", "setting": "Heliothis virescens [2]; 90 h UV exposure", "result": 139.5, "unit": "%"}, {"measurement": "ability to inhibit pupation after UV (in words)", "setting": "Heliothis virescens [2]; 200 h UV", "result": "did decline"}, {"measurement": "Relative activity, inhibition of pupal development", "setting": "Heliothis virescens [2]; 200 h UV exposure", "result": 86.8, "unit": "%"}, {"measurement": "ability to inhibit pupation after UV (in words)", "setting": "Heliothis virescens [2]; 400 h UV", "result": "even greater decline"}, {"measurement": "activity retained after 400 h of exposure to UV radiation", "setting": "Heliothis virescens [2]; 400 h UV", "result": "approximately 50%"}, {"measurement": "Relative activity, inhibition of pupal development", "setting": "Heliothis virescens [2]; 400 h UV exposure", "result": 41.0, "unit": "%"}, {"measurement": "ability to inhibit pupation after UV (in words)", "setting": "Heliothis virescens [2]; up to 90 h UV", "result": "not appreciably reduced"}, {"measurement": "EC50 (concentration causing 50% growth inhibition)", "setting": "Heliothis virescens [3]", "result": "0.09 (0.05-0.17) ppm"}, {"measurement": "degradation following 400 h of exposure to UV radiation (in words)", "setting": "[4]", "result": "none of the three compounds remained in their original state"}, {"measurement": "kinetics of UV degradation (in words)", "setting": "[4]", "result": "first-order reaction"}, {"measurement": "UV lability (in words)", "setting": "[4]", "result": "UV-labile"}, {"measurement": "Relative activity, inhibition of adult development", "setting": "Heliothis virescens [5]; 15 h UV exposure", "result": 103.2, "unit": "%"}, {"measurement": "Relative activity, inhibition of adult development", "setting": "Heliothis virescens [5]; 30 h UV exposure", "result": 106.3, "unit": "%"}, {"measurement": "Relative activity, inhibition of adult development", "setting": "Heliothis virescens [5]; 90 h UV exposure", "result": 106.3, "unit": "%"}, {"measurement": "ability to inhibit larvae from reaching the adult stage after UV (in words)", "setting": "Heliothis virescens [5]; 200 h UV", "result": "remained substantially unchanged until 400 h of irradiation"}, {"measurement": "Relative activity, inhibition of adult development", "setting": "Heliothis virescens [5]; 200 h UV exposure", "result": 96.0, "unit": "%"}, {"measurement": "Relative activity, inhibition of adult development", "setting": "Heliothis virescens [5]; 400 h UV exposure", "result": 72.3, "unit": "%"}]}]}
